Assay results as given in the NIST ThermoML archive (doi:10.1016/j.jct.2014.04.016).
Where “and” joins values, the source holds several entries; their conditions need not be identical. Equal entries are not always repeated. ± gives the expanded uncertainty stated by the source.

Test: xn = mol fraction of the nth substance listed
Settings: 100 kPa; for electrical conductivity: Alternating current cell with electrodes; for mass density: Vibrating tube method; for viscosity: Concentric cylinders viscometry

CCCCCCCCOS(=O)(=O)[O-].CCn1cc[n+](C)c1 [1-ethyl-3-methylimidazolium octyl sulfate] + O
Settings	electrical conductivity	mass density [kg/m3]	viscosity
251.8 K, Glass, x1 = 0.5001	0.013 ± 0.003 S/m	–	–
251.9 K, Glass, x1 = 0.5001	0.014 ± 0.003 S/m	–	–
254.1 K, Glass, x1 = 0.5001	0.016 S/m and 0.017 S/m	–	–
255.1 K, Glass, x1 = 0.5001	0.018 ± 0.003 S/m	–	–
256.1 K, Glass, x1 = 0.5001	0.02 ± 0.003 S/m	–	–
257.1 K, Glass, x1 = 0.4688	0.023 ± 0.003 S/m	–	–
257.1 K, Glass, x1 = 0.5001	0.022 ± 0.003 S/m	–	–
258.1 K, Glass, x1 = 0.5001	0.023 ± 0.003 S/m	–	–
259.1 K, Glass, x1 = 0.4688	0.028 ± 0.003 S/m	–	–
259.1 K, Liquid, x1 = 0.5001	0.025 ± 0.003 S/m	–	–
261.1 K, Glass, x1 = 0.4688	0.032 S/m and 0.031 S/m	–	–
261.1 K, Liquid, x1 = 0.0803	0.56 ± 0.012 S/m	–	–
261.1 K, Liquid, x1 = 0.5001	0.029 ± 0.003 S/m	–	–
263.1 K, Glass, x1 = 0.2119	0.228 ± 0.005 S/m	–	–
263.1 K, Glass, x1 = 0.4688	0.036 S/m and 0.038 S/m	–	–
263.1 K, Liquid, x1 = 0.0586	0.703 ± 0.016 S/m	–	–
263.1 K, Liquid, x1 = 0.0803	0.611 ± 0.013 S/m	–	–
263.1 K, Liquid, x1 = 0.5001	0.034 ± 0.003 S/m	–	–
264.1 K, Glass, x1 = 0.1197	0.479 ± 0.011 S/m	–	–
265.1 K, Liquid, x1 = 0.0803	0.667 S/m and 0.622 S/m	–	–
266.1 K, Glass, x1 = 0.4688	0.045 ± 0.003 S/m	–	–
266.1 K, Liquid, x1 = 0.0803	0.688 ± 0.015 S/m	–	–
267.1 K, Glass, x1 = 0.4688	0.049 ± 0.003 S/m	–	–
268.1 K, Glass, x1 = 0.1197	0.566 ± 0.012 S/m	–	–
268.1 K, Glass, x1 = 0.2119	0.29 ± 0.007 S/m	–	–
268.1 K, Glass, x1 = 0.4108	0.085 ± 0.003 S/m	–	–
268.1 K, Glass, x1 = 0.4688	0.051 ± 0.003 S/m	–	–
268.1 K, Liquid, x1 = 0.0401	0.898 ± 0.019 S/m	–	–
268.1 K, Liquid, x1 = 0.0586	0.867 ± 0.02 S/m	–	–
268.1 K, Liquid, x1 = 0.0803	0.755 S/m and 0.753 S/m	–	–
268.1 K, Liquid, x1 = 0.4688	0.052 ± 0.003 S/m	–	–
268.1 K, Liquid, x1 = 0.5001	0.048 ± 0.003 S/m	–	–
269.1 K, Glass, x1 = 0.1197	0.591 S/m and 0.59 S/m	–	–
269.1 K, Liquid, x1 = 0.0586	0.897 ± 0.019 S/m	–	–
269.1 K, Liquid, x1 = 0.1197	–	1084.1 ± 1	–
269.1 K, Liquid, x1 = 0.4688	0.054 ± 0.003 S/m	–	–
269.6 K, Glass, x1 = 0.4108	–	–	16300 ± 7600 mPa·s
269.6 K, Liquid, x1 = 0.4108	–	1107.2 ± 1	–
270.1 K, Glass, x1 = 0.1197	0.617 S/m and 0.616 S/m	–	19170 mPa·s
270.1 K, Glass, x1 = 0.4108	–	–	5510 ± 1500 mPa·s
270.1 K, Liquid, x1 = 0.0401	0.968 ± 0.02 S/m	–	–
270.1 K, Liquid, x1 = 0.1197	–	1083.7 ± 1	–
270.1 K, Liquid, x1 = 0.4108	–	1107 ± 1	–
270.1 K, Liquid, x1 = 0.4688	0.059 S/m and 0.058 S/m	–	–
270.6 K, Glass, x1 = 0.4108	–	–	2431 ± 460 mPa·s
270.6 K, Liquid, x1 = 0.4108	–	1106.7 ± 1	–
271.1 K, Glass, x1 = 0.1197	0.641 S/m and 0.639 S/m	–	16390 ± 7600 mPa·s
271.1 K, Glass, x1 = 0.4108	0.1 ± 0.003 S/m	–	1385 ± 210 mPa·s
271.1 K, Liquid, x1 = 0.0803	0.862 ± 0.019 S/m	–	–
271.1 K, Liquid, x1 = 0.1197	–	1083.1 ± 1	–
271.1 K, Liquid, x1 = 0.4108	–	1106.4 ± 1	–
271.6 K, Glass, x1 = 0.4108	–	–	889.3 ± 110 mPa·s
271.6 K, Liquid, x1 = 0.4108	–	1106.1 ± 1	–
272.1 K, Glass, x1 = 0.1197	0.667 ± 0.014 S/m	–	11470 ± 4400 mPa·s
272.1 K, Glass, x1 = 0.4108	0.104 ± 0.003 S/m	–	–
272.1 K, Liquid, x1 = 0.0401	1.03 ± 0.022 S/m	–	–
272.1 K, Liquid, x1 = 0.1197	0.666 ± 0.015 S/m	1082.6 ± 1	–
272.1 K, Liquid, x1 = 0.4108	–	1105.7 ± 1	609.1 ± 67 mPa·s
273.1 K, Glass, x1 = 0.1197	–	–	9033 ± 3100 mPa·s
273.1 K, Glass, x1 = 0.1402	0.597 ± 0.013 S/m	–	–
273.1 K, Glass, x1 = 0.2119	0.371 S/m and 0.368 S/m	–	–
273.1 K, Glass, x1 = 0.3076	0.203 ± 0.005 S/m	–	–
273.1 K, Glass, x1 = 0.3555	0.147 ± 0.003 S/m	–	–
273.1 K, Glass, x1 = 0.4108	0.111 ± 0.004 S/m	–	–
273.1 K, Liquid, x1 = 0.0401	1.07 S/m	–	–
273.1 K, Liquid, x1 = 0.0586	1.04 S/m	–	–
273.1 K, Liquid, x1 = 0.0803	0.921 ± 0.02 S/m	–	–
273.1 K, Liquid, x1 = 0.1197	0.695 ± 0.015 S/m	1082 ± 1	–
273.1 K, Liquid, x1 = 0.4108	–	1105 ± 1	564.7 ± 60 mPa·s
273.1 K, Liquid, x1 = 0.4688	0.073 S/m and 0.07 S/m	–	–
273.1 K, Liquid, x1 = 0.5001	0.066 ± 0.003 S/m	–	–
274.1 K, Glass, x1 = 0.1197	–	–	6783 ± 2000 mPa·s
274.1 K, Liquid, x1 = 0.1197	0.723 ± 0.016 S/m	1081.5 ± 1.1	–
274.1 K, Liquid, x1 = 0.4108	0.117 ± 0.003 S/m	1104.3 ± 1	524.2 ± 54 mPa·s
275.1 K, Glass, x1 = 0.1197	–	–	4354 ± 1000 mPa·s
275.1 K, Liquid, x1 = 0.1197	0.75 ± 0.016 S/m	1080.9 ± 1	–
275.1 K, Liquid, x1 = 0.4108	0.123 ± 0.004 S/m	1103.6 ± 1	487.1 ± 49 mPa·s
276.1 K, Glass, x1 = 0.1197	–	–	2361 ± 430 mPa·s
276.1 K, Glass, x1 = 0.3555	0.169 ± 0.004 S/m	–	–
276.1 K, Liquid, x1 = 0.0803	1.02 ± 0.021 S/m	–	–
276.1 K, Liquid, x1 = 0.1197	–	1080.3 ± 1	–
276.1 K, Liquid, x1 = 0.4688	0.086 ± 0.003 S/m	–	–
277.1 K, Glass, x1 = 0.1197	–	–	1248 ± 170 mPa·s
277.1 K, Glass, x1 = 0.3555	0.181 ± 0.004 S/m	–	–
277.1 K, Liquid, x1 = 0.1197	0.807 S/m and 0.806 S/m	1079.7 ± 1	–
277.6 K, Glass, x1 = 0.3555	–	–	5137 ± 1300 mPa·s
277.6 K, Liquid, x1 = 0.3555	–	1100 ± 1	–
277.9 K, Glass, x1 = 0.3555	–	–	2995 ± 600 mPa·s and 2875 ± 560 mPa·s
277.9 K, Liquid, x1 = 0.3555	–	1099.9 ± 1	–
278.1 K, Glass, x1 = 0.1402	0.731 S/m and 0.732 S/m	–	–
278.1 K, Glass, x1 = 0.1605	0.677 ± 0.015 S/m	–	–
278.1 K, Glass, x1 = 0.2119	0.46 ± 0.01 S/m	–	–
278.1 K, Glass, x1 = 0.3076	0.259 S/m and 0.258 S/m	–	–
